In the NIST ThermoML archive (doi:10.1021/je025631i):
Numbers after ± are expanded uncertainties.

How the values were obtained:
[1] = Liquid; for mass density: 293.15 K, 101.33 kPa, Vibrating tube method
[2] = refractive index (Na D-line) (dimensionless); conditions: 293.15 K; 101.33 kPa; Liquid; Abbe refractometer

| mass density [1] [kg/m3] | vapor or sublimation pressure ([1]; 348.15 K) [kPa] | vapor or sublimation pressure ([1]; 363.15 K) [kPa] | vapor or sublimation pressure ([1]; 382.79 K) [kPa] | vapor or sublimation pressure ([1]; 383.15 K) [kPa] | vapor or sublimation pressure ([1]; 405.54 K) [kPa] | vapor or sublimation pressure ([1]; 429.34 K) [kPa] | refractive index [2] | vapor or sublimation pressure ([1]; 356.74 K) [kPa] | vapor or sublimation pressure ([1]; 376.95 K) [kPa] | vapor or sublimation pressure ([1]; 398.79 K) [kPa] | Structure (SMILES) |
| --- | --- | --- | --- | --- | --- | --- | --- | --- | --- | --- | --- |
| 858.06 ± 0.16 | 7.35 ± 0.33 | 13.32 ± 0.35 | 26.66 ± 0.34 | 26.98 ± 0.4 | 53.33 ± 0.41 | 101.32 ± 0.5 | 1.4657 ± 0.0003 |  |  |  | CC1=CCC2CC1C2(C)C (stereo unspecified) [2-pinene] |
| 702.44 ± 0.18 | 19.31 ± 0.37 | 33.52 ± 0.42 |  | 64.25 ± 0.52 |  |  | 1.3973 ± 0.0003 | 26.66 ± 0.3 | 53.33 ± 0.36 | 101.3 ± 0.5 | CCCCCCCC [octane] |
